Results reported in ChEMBL document CHEMBL5584247, “Stereochemical properties of quazepam and its affinity for the GABAA receptor” (Bioorg Med Chem Lett, 2024).
Where “and” joins values, the source holds several entries; their conditions need not be identical. Equal entries are not always repeated.

Assays:
[1] = molecular target: T1, GABA-A receptor; anion channel (Homo sapiens) (UniProt P14867+P47870+P18507+P28472+P48169+Q99928+Q9UN88+P34903+O00591+O14764+Q8N1C3+P18505+P78334+P47869+P31644+Q16445); assay: Inhibition of GABAA receptor (unknown origin) at 50 uM relative to control; type: protein-complex assay
[2] = molecular target: T1, GABA-A receptor; anion channel (Homo sapiens); assay: Inhibition of GABAA receptor (unknown origin) at 10 uM relative to control; type: protein-complex assay

**Q.** Which inhibition [1] does the source give for `Cc1cc(Cl)cc2c1N(CC(F)(F)F)C(=S)CN=C2c1ccccc1F` here?
**A.** The inhibition was 35% and 31%.

**Q.** And the inhibition ([1]; INHIBITOR)?
**A.** The inhibition was 53%.

**Q.** And the inhibition [2]?
**A.** The inhibition was 24% and 17% and 26%.
